Test results reported in US20150005281A1, “PYRIMIDINE-2,4-DIAMINE DERIVATIVES AS KINASE INHIBITORS” (Cellzome Limited, priority 2011, published 2015).

Key:
Assay type in all cases: binding
JAK1 = target: T1, JAK1 (Homo sapiens, UniProt P23458); experiment: Kinobeads assay with immunodetection, JAK1; settings: for IC50: Kinobeads assay, mixed Molt4/Ramos lysate, read-out: Inhibition values (IC50) JAK1
T1 construct: endogenous in cells; host or cells: Molt4 (ATCC CRL-1582) and Ramos (ATCC CRL-1596) cells; mixed lysate 1:2
T1 sequence (P23458 whole entry): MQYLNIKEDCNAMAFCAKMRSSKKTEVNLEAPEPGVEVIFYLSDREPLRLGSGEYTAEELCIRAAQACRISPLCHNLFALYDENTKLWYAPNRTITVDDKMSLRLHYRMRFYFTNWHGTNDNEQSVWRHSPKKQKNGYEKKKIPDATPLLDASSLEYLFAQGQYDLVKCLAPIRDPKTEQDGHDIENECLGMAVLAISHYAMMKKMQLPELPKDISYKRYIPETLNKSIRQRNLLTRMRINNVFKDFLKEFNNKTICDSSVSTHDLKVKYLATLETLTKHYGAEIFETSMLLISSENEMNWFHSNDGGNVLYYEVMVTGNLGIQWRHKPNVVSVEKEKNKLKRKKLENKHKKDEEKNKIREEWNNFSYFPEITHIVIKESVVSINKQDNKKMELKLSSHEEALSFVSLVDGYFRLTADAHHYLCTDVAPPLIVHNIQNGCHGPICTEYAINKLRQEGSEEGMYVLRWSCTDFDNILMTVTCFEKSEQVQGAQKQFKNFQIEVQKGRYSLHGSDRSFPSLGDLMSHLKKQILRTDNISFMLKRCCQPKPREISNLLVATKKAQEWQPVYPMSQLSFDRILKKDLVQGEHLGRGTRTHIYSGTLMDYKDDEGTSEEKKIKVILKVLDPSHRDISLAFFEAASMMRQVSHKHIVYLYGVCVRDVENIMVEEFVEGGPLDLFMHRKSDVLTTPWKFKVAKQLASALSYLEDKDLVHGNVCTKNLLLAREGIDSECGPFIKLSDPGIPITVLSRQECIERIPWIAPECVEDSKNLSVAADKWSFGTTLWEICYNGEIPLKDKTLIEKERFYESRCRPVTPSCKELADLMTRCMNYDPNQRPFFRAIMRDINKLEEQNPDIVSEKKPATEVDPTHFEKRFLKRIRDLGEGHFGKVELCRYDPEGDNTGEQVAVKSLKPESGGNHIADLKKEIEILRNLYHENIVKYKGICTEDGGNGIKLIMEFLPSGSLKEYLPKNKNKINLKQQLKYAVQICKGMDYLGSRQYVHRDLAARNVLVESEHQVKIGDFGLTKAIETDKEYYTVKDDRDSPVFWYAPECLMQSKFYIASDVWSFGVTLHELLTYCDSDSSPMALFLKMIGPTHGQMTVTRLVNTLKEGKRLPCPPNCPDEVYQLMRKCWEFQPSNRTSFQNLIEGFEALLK
In short: (§1)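 Molt4 plus Ramos lysate (1:2), 10 mg/mL, mixed with compound dilutions (1:3 series from 5 mM DMSO stock) and kinobeads; 3 h, cold room. Bead-bound JAKs eluted, dot blot immunodetection, IC50 from dose-response.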

JAK2 = target: T2, JAK2 (Homo sapiens, UniProt O60674); experiment: Kinobeads assay with immunodetection, JAK2; settings: mixed Molt4/Ramos lysate, read-out: Inhibition values (IC50) JAK2
T2 construct: endogenous in cells; host or cells: Molt4 (ATCC CRL-1582) and Ramos (ATCC CRL-1596) cells; mixed lysate 1:2
T2 sequence (O60674 whole entry): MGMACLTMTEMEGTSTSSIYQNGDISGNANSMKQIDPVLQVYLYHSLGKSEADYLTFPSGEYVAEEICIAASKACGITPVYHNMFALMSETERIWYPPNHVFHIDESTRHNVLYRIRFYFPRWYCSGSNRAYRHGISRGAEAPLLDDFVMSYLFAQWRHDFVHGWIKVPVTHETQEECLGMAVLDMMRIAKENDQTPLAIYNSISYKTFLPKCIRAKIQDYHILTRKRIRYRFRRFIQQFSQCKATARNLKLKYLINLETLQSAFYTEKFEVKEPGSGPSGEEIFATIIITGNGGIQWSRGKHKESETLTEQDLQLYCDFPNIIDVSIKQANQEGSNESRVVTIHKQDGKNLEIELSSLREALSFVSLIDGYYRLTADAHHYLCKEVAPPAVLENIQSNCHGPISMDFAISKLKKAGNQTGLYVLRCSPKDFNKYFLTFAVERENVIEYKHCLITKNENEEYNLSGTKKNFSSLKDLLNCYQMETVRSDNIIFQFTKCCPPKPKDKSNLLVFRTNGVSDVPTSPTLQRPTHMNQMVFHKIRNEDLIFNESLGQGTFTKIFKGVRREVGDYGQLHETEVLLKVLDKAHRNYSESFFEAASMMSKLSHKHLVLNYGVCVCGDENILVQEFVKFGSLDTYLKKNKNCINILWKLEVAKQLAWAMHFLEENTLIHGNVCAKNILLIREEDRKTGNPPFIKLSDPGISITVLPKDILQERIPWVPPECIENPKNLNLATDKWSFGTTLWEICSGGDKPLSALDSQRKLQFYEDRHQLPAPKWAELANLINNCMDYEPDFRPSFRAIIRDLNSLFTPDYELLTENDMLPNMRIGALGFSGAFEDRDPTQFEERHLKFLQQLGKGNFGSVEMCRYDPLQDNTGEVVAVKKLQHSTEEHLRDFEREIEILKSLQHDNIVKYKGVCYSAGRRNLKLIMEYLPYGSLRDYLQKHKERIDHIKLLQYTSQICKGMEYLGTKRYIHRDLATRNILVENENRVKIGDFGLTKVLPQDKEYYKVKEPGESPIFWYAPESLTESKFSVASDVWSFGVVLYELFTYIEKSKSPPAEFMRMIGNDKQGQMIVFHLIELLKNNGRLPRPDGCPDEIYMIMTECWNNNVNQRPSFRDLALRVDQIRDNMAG
In short: as §1

JAK3 = target: T3, JAK3 (Homo sapiens, UniProt P52333); experiment: Kinobeads assay with immunodetection, JAK3; settings: for IC50: Kinobeads assay, mixed Molt4/Ramos lysate, read-out: Inhibition values (IC50) JAK3
T3 construct: endogenous in cells; host or cells: Molt4 (ATCC CRL-1582) and Ramos (ATCC CRL-1596) cells; mixed lysate 1:2
T3 sequence (P52333 1-1124): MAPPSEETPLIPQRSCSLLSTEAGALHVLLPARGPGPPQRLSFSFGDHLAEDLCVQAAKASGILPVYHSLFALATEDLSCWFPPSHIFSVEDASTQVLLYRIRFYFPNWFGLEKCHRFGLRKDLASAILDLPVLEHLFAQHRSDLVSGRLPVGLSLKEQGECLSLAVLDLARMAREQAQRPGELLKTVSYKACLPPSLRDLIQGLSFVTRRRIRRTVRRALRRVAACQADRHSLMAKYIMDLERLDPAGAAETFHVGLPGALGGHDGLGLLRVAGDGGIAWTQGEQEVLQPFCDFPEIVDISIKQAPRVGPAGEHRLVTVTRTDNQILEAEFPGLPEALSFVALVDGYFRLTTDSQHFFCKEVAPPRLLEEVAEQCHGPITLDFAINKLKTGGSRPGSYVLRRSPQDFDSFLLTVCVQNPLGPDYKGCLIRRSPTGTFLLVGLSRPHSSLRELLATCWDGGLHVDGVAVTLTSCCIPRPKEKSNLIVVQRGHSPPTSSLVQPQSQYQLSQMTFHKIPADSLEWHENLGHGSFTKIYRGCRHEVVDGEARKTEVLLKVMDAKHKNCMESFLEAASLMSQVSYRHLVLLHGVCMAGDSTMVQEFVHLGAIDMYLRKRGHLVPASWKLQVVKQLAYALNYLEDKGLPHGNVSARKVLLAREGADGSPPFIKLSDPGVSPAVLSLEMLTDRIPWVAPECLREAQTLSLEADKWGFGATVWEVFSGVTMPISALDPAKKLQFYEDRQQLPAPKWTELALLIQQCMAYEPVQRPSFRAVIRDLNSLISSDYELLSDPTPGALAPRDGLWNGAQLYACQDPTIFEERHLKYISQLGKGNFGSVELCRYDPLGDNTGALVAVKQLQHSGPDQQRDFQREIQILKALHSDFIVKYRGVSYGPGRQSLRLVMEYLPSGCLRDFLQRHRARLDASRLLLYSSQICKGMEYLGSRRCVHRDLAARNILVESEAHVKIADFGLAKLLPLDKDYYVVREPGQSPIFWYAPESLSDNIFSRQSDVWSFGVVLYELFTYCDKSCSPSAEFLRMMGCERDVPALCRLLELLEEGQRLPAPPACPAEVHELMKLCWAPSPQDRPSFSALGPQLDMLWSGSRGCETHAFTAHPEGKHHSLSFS
In short: as §1

TYK2 = target: T4, TYK2 (Homo sapiens, UniProt P29597); experiment: Kinobeads assay with immunodetection, TYK2; settings: for IC50: Kinobeads assay, mixed Molt4/Ramos lysate, read-out: Inhibition values (IC50) Tyk2
T4 construct: endogenous in cells; host or cells: Molt4 (ATCC CRL-1582) and Ramos (ATCC CRL-1596) cells; mixed lysate 1:2
T4 sequence (P29597 whole entry): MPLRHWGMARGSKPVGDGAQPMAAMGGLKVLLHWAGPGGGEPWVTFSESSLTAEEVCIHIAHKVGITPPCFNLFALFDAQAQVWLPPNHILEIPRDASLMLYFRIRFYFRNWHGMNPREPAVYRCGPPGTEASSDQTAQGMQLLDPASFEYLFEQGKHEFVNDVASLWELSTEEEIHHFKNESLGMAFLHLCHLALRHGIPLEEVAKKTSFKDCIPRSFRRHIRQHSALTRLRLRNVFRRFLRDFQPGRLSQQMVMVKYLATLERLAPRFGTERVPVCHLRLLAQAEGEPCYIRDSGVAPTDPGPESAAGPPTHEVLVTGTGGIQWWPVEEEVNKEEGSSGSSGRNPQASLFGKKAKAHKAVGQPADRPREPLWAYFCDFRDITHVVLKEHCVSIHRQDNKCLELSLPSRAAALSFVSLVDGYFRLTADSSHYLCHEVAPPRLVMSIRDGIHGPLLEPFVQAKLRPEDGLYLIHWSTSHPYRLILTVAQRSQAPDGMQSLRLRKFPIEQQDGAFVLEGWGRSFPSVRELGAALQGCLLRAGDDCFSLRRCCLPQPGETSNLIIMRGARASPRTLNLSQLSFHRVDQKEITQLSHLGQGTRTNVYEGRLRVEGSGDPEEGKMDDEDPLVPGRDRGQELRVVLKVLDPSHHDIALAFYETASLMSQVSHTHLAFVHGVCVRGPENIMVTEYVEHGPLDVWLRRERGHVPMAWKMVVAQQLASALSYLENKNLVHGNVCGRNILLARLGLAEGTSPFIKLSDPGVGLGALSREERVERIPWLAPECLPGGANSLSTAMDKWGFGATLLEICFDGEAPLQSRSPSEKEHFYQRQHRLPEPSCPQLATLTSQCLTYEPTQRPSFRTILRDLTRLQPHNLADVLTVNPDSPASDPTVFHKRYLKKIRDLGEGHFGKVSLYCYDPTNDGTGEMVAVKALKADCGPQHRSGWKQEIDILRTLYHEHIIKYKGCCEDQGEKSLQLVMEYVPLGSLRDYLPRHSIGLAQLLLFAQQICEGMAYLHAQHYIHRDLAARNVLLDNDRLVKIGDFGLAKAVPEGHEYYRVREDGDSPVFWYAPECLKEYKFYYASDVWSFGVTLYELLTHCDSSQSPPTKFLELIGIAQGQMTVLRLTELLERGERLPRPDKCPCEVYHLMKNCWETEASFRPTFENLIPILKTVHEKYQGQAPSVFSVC
In short: as §1

## Cn1cc(Nc2ncc(Cl)c(NC[C@@H]3C[C@H](F)CN3C(=O)CCC#N)n2)cn1 [Example 110, 4-((2S,4S)-2-(((5-chloro-2-((1-methyl-1H-pyrazol-4-yl)amino)pyrimidin-4-yl)amino)methyl)-4-fluoropyrrolidin-1-yl)-4-oxobutanenitrile]
JAK1
  Selectivity ratio over JAK2, JAK1: JAK1 = 88
  IC50: < 100 nM
JAK2
  IC50: 1000 to 10000 nM
JAK3
  IC50: < 100 nM
TYK2
  IC50: 100 to 1000 nM

## C=CS(=O)(=O)N1CCCC[C@@H]1CNc1nc(Nc2cnn(C)c2)ncc1Cl [Example 45, (R)-5-chloro-N^2-(1-methyl-1H-pyrazol-4-yl)-N^4-((1-(vinylsulfonyl)piperidin-2-yl)methyl)pyrimidine-2,4-diamine]
JAK1
  IC50: 100 to 1000 nM
JAK2
  IC50: 1000 to 10000 nM
JAK3
  Selectivity ratio over JAK2, JAK3: JAK3 = 160
  IC50: < 100 nM
TYK2
  IC50: 100 to 1000 nM

## Cc1cnc(Nc2cnn(C)c2)nc1NC[C@@H]1CCCN1CCS(C)(=O)=O [Example 105, (S)-5-methyl-N^2-(1-methyl-1H-pyrazol-4-yl)-N^4-((1-(2-(methylsulfonyl)ethyl)pyrrolidin-2-yl)methyl)pyrimidine-2,4-diamine]
JAK1
  Selectivity ratio over JAK2, JAK1: JAK1 = 33
  IC50: < 100 nM
JAK2
  IC50: 1000 to 10000 nM
JAK3
  IC50: 100 to 1000 nM
TYK2
  IC50: < 100 nM

## Cn1cc(Nc2ncc(Cl)c(NC[C@@H]3CCN(S(C)(=O)=O)C3)n2)cn1 [Example 30, (S)-5-chloro-N^2-(1-methyl-1H-pyrazol-4-yl)-N^4-((1-(methylsulfonyl)pyrrolidin-3-yl)methyl)pyrimidine-2,4-diamine]
JAK1
  IC50: 1000 to 10000 nM
JAK2
  IC50: 1000 to 10000 nM
JAK3
  IC50: 100 to 1000 nM
TYK2
  IC50: 100 to 1000 nM
  Selectivity ratio over JAK2, Tyk2: Tyk2 = 9

## Cc1cnc(Nc2cnn(C)c2)nc1NC[C@@H]1C[C@H](F)CN1CC#N [Example 102, 2-((2S,4S)-4-fluoro-2-(((5-methyl-2-((1-methyl-1H-pyrazol-4-yl)amino)pyrimidin-4-yl)amino)methyl)pyrrolidin-1-yl)acetonitrile]
JAK1
  Selectivity ratio over JAK2, JAK1: JAK1 = 16
  IC50: < 100 nM
JAK2
  IC50: 1000 to 10000 nM
JAK3
  IC50: 100 to 1000 nM
TYK2
  IC50: 100 to 1000 nM

## Cc1cnc(Nc2cnn(C)c2)nc1NC[C@@H]1CCCN1S(C)(=O)=O [Example 77, (S)-5-methyl-N^2-(1-methyl-1H-pyrazol-4-yl)-N^4-((1-(methylsulfonyl)pyrrolidin-2-yl)methyl)pyrimidine-2,4-diamine]
JAK1
  Selectivity ratio over JAK2, JAK1: JAK1 = 28
  IC50: < 100 nM
JAK2
  IC50: 100 to 1000 nM
JAK3
  IC50: < 100 nM
TYK2
  IC50: < 100 nM

## CS(=O)(=O)N1CC[C@H](CNc2nc(Nc3cnn(CCO)c3)ncc2Cl)C1 [Example 85, (R)-2-(4-((5-chloro-4-(((1-(methylsulfonyl)pyrrolidin-3-yl)methyl)amino)pyrimidin-2-yl)amino)-1H-pyrazol-1-yl)ethanol]
JAK1
  Selectivity ratio over JAK2, JAK1: JAK1 = 27
  IC50: < 100 nM
JAK2
  IC50: 100 to 1000 nM
JAK3
  IC50: 100 to 1000 nM
TYK2
  IC50: < 100 nM

## Cn1cc(Nc2ncc(Cl)c(NC[C@H]3CCN(CCS(C)(=O)=O)C3)n2)cn1 [Example 55, (R)-5-chloro-N^2-(1-methyl-1H-pyrazol-4-yl)-N^4-((1-(2-(methylsulfonyl)ethyl)pyrrolidin-3-yl)methyl)pyrimidine-2,4-diamine]
JAK1
  Selectivity ratio over JAK2, JAK1: JAK1 = 11
  IC50: < 100 nM
JAK2
  IC50: 100 to 1000 nM
JAK3
  IC50: < 100 nM
TYK2
  IC50: 100 to 1000 nM

## C=CC(=O)N1CCCC[C@@H]1CNc1nc(Nc2cnn(CCO)c2)ncc1Cl [Example 42, (R)-1-(2-(((5-chloro-2-((1-(2-hydroxyethyl)-1H-pyrazol-4-yl)amino)pyrimidin-4-yl)amino)methyl)piperidin-1-yl)prop-2-en-1-one]
JAK1
  IC50: 100 to 1000 nM
JAK2
  IC50: 100 to 1000 nM
JAK3
  IC50: 100 to 1000 nM
TYK2
  IC50: < 100 nM
  Selectivity ratio over JAK2, Tyk2: Tyk2 = 4

## C=CS(=O)(=O)N1CCC[C@H]1CNc1nc(Nc2cnn(CCO)c2)ncc1Cl [Example 15, (S)-2-(4-((5-chloro-4-(((1-(vinylsulfonyl)pyrrolidin-2-yl)methyl)amino)pyrimidin-2-yl)amino)-1H-pyrazol-1-yl)ethanol]
JAK1
  Selectivity ratio over JAK2, JAK1: JAK1 = 13
  IC50: < 100 nM
JAK2
  IC50: 100 to 1000 nM
JAK3
  IC50: < 100 nM
TYK2
  IC50: < 100 nM

## C=CC(=O)N1CC[C@@H](CNc2nc(Nc3cnn(CCO)c3)ncc2Cl)C1 [Example 29, (S)-1-(3-(((5-chloro-2-((1-(2-hydroxyethyl)-1H-pyrazol-4-yl)amino)pyrimidin-4-yl)amino)methyl)pyrrolidin-1-yl)prop-2-en-1-one]
JAK1
  IC50: 100 to 1000 nM
JAK2
  IC50: > 10000 nM
JAK3
  IC50: 100 to 1000 nM
TYK2
  IC50: 1000 to 10000 nM

## C=CC(=O)N1CCC[C@H]1CNc1nc(Nc2cnn(C)c2)ncc1Cl [Example 10, (S)-1-(2-(((5-chloro-2-((1-methyl-1H-pyrazol-4-yl)amino)pyrimidin-4-yl)amino)methyl)pyrrolidin-1-yl)prop-2-en-1-one]
JAK1
  IC50: 1000 to 10000 nM
JAK2
  IC50: > 10000 nM
JAK3
  IC50: 1000 to 10000 nM
TYK2
  IC50: 1000 to 10000 nM

## C=CS(=O)(=O)N1CCCC[C@H]1CNc1nc(Nc2cnn(C)c2)ncc1Cl [Example 38, (S)-5-chloro-N^2-(1-methyl-1H-pyrazol-4-yl)-N^4-((1-(vinylsulfonyl)piperidin-2-yl)methyl)pyrimidine-2,4-diamine]
JAK1
  IC50: 100 to 1000 nM
JAK2
  IC50: 1000 to 10000 nM
JAK3
  Selectivity ratio over JAK2, JAK3: JAK3 = 57
  IC50: < 100 nM
TYK2
  IC50: 100 to 1000 nM

## CN1CCCC1CNc1nc(Nc2cnn(C)c2)ncc1Cl (centres unmarked) [Example 62, 5-chloro-N^2-(1-methyl-1H-pyrazol-4-yl)-N^4-((1-methylpyrrolidin-2-yl)methyl)pyrimidine-2,4-diamine]
JAK1
  Selectivity ratio over JAK2, JAK1: JAK1 = 23
  IC50: 100 to 1000 nM
JAK2
  IC50: > 10000 nM
JAK3
  IC50: 100 to 1000 nM
TYK2
  IC50: > 10000 nM

## CC(=O)N1CC(CNc2nc(Nc3cnn(C)c3)ncc2Cl)C1 [Example 16, 1-(3-(((5-chloro-2-((1-methyl-1H-pyrazol-4-yl)amino)pyrimidin-4-yl)amino)methyl)azetidin-1-yl)ethanone]
JAK1
  IC50: > 10000 nM
JAK2
  IC50: > 10000 nM
JAK3
  IC50: > 10000 nM
TYK2
  IC50: > 10000 nM

## CC(C)NC(=O)Cn1cc(Nc2nccc(NC[C@H]3CCCN3CCC#N)n2)cn1 [Example 83, (R)-2-(4-((4-(((1-(2-cyanoethyl)pyrrolidin-2-yl)methyl)amino)pyrimidin-2-yl)amino)-1H-pyrazol-1-yl)-N-isopropylacetamide]
JAK1
  IC50: 1000 to 10000 nM
JAK2
  IC50: > 10000 nM
JAK3
  IC50: 1000 to 10000 nM
TYK2
  IC50: < 100 nM
  Selectivity ratio over JAK2, Tyk2: Tyk2 = 650

## Cn1cc(Nc2ncc(Cl)c(NC[C@H]3CCCN(C(=O)CC#N)C3)n2)cn1 [Example 137, (R)-3-(3-(((5-chloro-2-((1-methyl-1H-pyrazol-4-yl)amino)pyrimidin-4-yl)amino)methyl)piperidin-1-yl)-3-oxopropanenitrile]
JAK1
  IC50: < 100 nM
JAK2
  IC50: 100 to 1000 nM
JAK3
  Selectivity ratio over JAK2, JAK3: JAK3 = 33
  IC50: < 100 nM
TYK2
  IC50: < 100 nM

## CC(=O)N1CC[C@H](CNc2nc(Nc3cnn(CCO)c3)ncc2Cl)C1 [Example 21, (R)-1-(3-(((5-chloro-2-((1-(2-hydroxyethyl)-1H-pyrazol-4-yl)amino)pyrimidin-4-yl)amino)methyl)pyrrolidin-1-yl)ethanone]
JAK1
  Selectivity ratio over JAK2, JAK1: JAK1 = 78
  IC50: < 100 nM
JAK2
  IC50: 1000 to 10000 nM
JAK3
  IC50: 100 to 1000 nM
TYK2
  IC50: < 100 nM

## Cn1cc(Nc2ncc(Cl)c(NC[C@H]3CCCN3CC(=O)NCC#N)n2)cn1 [Example 99, (R)-2-(2-(((5-chloro-2-((1-methyl-1H-pyrazol-4-yl)amino)pyrimidin-4-yl)amino)methyl)pyrrolidin-1-yl)-N-(cyanomethyl)acetamide]
JAK1
  IC50: < 100 nM
JAK2
  IC50: 1000 to 10000 nM
JAK3
  Selectivity ratio over JAK2, JAK3: JAK3 = 155
  IC50: < 100 nM
TYK2
  IC50: 100 to 1000 nM
